Patent publication US9029404B2, “Apoptosis-inducing agents for the treatment of cancer and immune and autoimmune diseases” (AbbVie Inc., priority 2008, dated 2015)

Molecular target: GST-Bcl-2 (Homo sapiens, UniProt P10415)
Experiment: Time Resolved-Fluorescence Resonance Energy Transfer (TR-FRET) Bcl-2 binding assay
Details: competition with F-Bak peptide probe (100 nM); GST-Bcl-2 1 nM; Tb-anti-GST 1 nM; 3 hours at room temperature; Wang's equation
Description: Determination of the utility of compounds having Formula (I) as binders to and inhibitors of anti-apoptotic Bcl-2 proteins was performed using the Time Resolved-Fluorescence Resonance Energy Transfer (TR-FRET) Assay. Tb-anti-GST antibody was purchased from Invitrogen (Catalog No. PV4216).
(§1) Representative compounds were serially diluted in dimethyl sulfoxide (DMSO) starting at 50 μM (2× starting concentration; 10% DMSO) and 10 μL were transferred into a 384-well plate. The samples are then mixed on a shaker for 1 minute and incubated for an additional 3 hours at room temperature. For each assay, the probe/antibody and protein/probe/antibody were included on each assay plate as negative and positive controls, respectively. Fluorescence was measured on the Envision (Perkin Elmer) using a 340/35 nm excitation filter and 520/525 (F-Bak peptide) and 495/510 nm (Tb-labeled anti-Histidine antibody) emission filters.
as §1, with “The” for “Representative compounds were serially diluted in dimethyl sulfoxide (DMSO) starting at 50 μM (2× starting concentration; 10% DMSO) and 10 μL were transferred into a 384-well plate. The”, “were” for “are”
The inhibition constant (Ki) is the dissociation constant of an enzyme-inhibitor complex or a protein/small molecule complex, wherein the small molecule is inhibiting binding of one protein to another protein. So a large Ki value indicates a low binding affinity and a small Ki value indicates a high binding affinity.

Chain of GST-Bcl-2 (P10415 whole entry): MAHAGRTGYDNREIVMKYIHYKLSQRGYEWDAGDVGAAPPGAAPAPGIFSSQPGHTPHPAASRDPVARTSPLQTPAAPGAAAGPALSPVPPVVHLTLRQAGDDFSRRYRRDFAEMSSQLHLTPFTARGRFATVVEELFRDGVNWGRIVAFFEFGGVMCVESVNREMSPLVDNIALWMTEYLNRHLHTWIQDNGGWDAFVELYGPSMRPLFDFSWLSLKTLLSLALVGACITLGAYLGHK

Cn1c(=O)[nH]c2cccc(Oc3cc(N4CCN(CC5=C(c6ccc(Cl)cc6)CC(C)(C)CC5)CC4)ccc3C(=O)NS(=O)(=O)c3cnc(OCC4CCOCC4)c(Cl)c3)c21 [Example 425, 4-(4-{[2-(4-chlorophenyl)-4,4-dimethylcyclohex-1-en-1-yl]methyl}piperazin-1-yl)-N-{[5-chloro-6-(tetrahydro-2H-pyran-4-ylmethoxy)pyridin-3-yl]sulfonyl}-2-[(3-methyl-2-oxo-2,3-dihydro-1H-benzimidazol-4-yl)oxy]benzamide]
Ki: 13 pM

Cn1c(=O)[nH]c2cccc(Oc3cc(N4CCN(CC5=C(c6ccc(Cl)cc6)CC(C)(C)CC5)CC4)ccc3C(=O)NS(=O)(=O)c3ccc(OCC4(F)CCOCC4)c([N+](=O)[O-])c3)c21 [Example 426, 4-(4-{[2-(4-chlorophenyl)-4,4-dimethylcyclohex-1-en-1-yl]methyl}piperazin-1-yl)-N-({4-[(4-fluorotetrahydro-2H-pyran-4-yl)methoxy]-3-nitrophenyl}sulfonyl)-2-[(3-methyl-2-oxo-2,3-dihydro-1H-benzimidazol-4-yl)oxy]benzamide]
Ki: < 10 pM

CO[C@H]1CC[C@H](CNc2ccc(S(=O)(=O)NC(=O)c3ccc(N4CCN(CC5=C(c6ccc(Cl)cc6)CC(C)(C)CC5)CC4)cc3Oc3cccc4[nH]c(=O)n(C)c34)cc2[N+](=O)[O-])CC1 [Example 427, 4-(4-{[2-(4-chlorophenyl)-4,4-dimethylcyclohex-1-en-1-yl]methyl}piperazin-1-yl)-N-[(4-{[(trans-4-methoxycyclohexyl)methyl]amino}-3-nitrophenyl)sulfonyl]-2-[(3-methyl-2-oxo-2,3-dihydro-1H-benzimidazol-4-yl)oxy]benzamide]
Ki: < 10 pM

CC1(C)CCC(CN2CCN(c3ccc(C(=O)NS(=O)(=O)c4ccc(NCC5(F)CCOCC5)c([N+](=O)[O-])c4)c(Oc4cccc5[nH]nc(N)c45)c3)CC2)=C(c2ccc(Cl)cc2)C1 [Example 428, 2-[(3-amino-1H-indazol-4-yl)oxy]-4-(4-{[2-(4-chlorophenyl)-4,4-dimethylcyclohex-1-en-1-yl]methyl}piperazin-1-yl)-N-[(4-{[(4-fluorotetrahydro-2H-pyran-4-yl)methyl]amino}-3-nitrophenyl)sulfonyl]benzamide]
Ki: < 10 pM

CC1(C)CCC(CN2CCN(c3ccc(C(=O)NS(=O)(=O)c4ccc(OCC5(F)CCOCC5)c([N+](=O)[O-])c4)c(Oc4cccc5[nH]nc(N)c45)c3)CC2)=C(c2ccc(Cl)cc2)C1 [Example 429, 2-[(3-amino-1H-indazol-4-yl)oxy]-4-(4-{[2-(4-chlorophenyl)-4,4-dimethylcyclohex-1-en-1-yl]methyl}piperazin-1-yl)-N-({4-[(4-fluorotetrahydro-2H-pyran-4-yl)methoxy]-3-nitrophenyl}sulfonyl)benzamide]
Ki: < 10 pM

CC1(C)CCC(CN2CCN(c3ccc(C(=O)NS(=O)(=O)c4cnc(OCC5(F)CCOCC5)c(Cl)c4)c(Oc4cccc5[nH]nc(N)c45)c3)CC2)=C(c2ccc(Cl)cc2)C1 [Example 430, 2-[(3-amino-1H-indazol-4-yl)oxy]-N-({5-chloro-6-[(4-fluorotetrahydro-2H-pyran-4-yl)methoxy]pyridin-3-yl}sulfonyl)-4-(4-{[2-(4-chlorophenyl)-4,4-dimethylcyclohex-1-en-1-yl]methyl}piperazin-1-yl)benzamide]
Ki: < 10 pM

CC1(C)CCC(CN2CCN(c3ccc(C(=O)NS(=O)(=O)c4ccc(NCC5CCOCC5)c([N+](=O)[O-])c4)c(Oc4cccc5[nH]nc(N)c45)c3)CC2)=C(c2ccc(Cl)cc2)C1 [Example 431, 2-[(3-amino-1H-indazol-4-yl)oxy]-4-(4-{[2-(4-chlorophenyl)-4,4-dimethylcyclohex-1-en-1-yl]methyl}piperazin-1-yl)-N-({3-nitro-4-[(tetrahydro-2H-pyran-4-ylmethyl)amino]phenyl}sulfonyl)benzamide]
Ki: < 10 pM

CC1(C)CCC(CN2CCN(c3ccc(C(=O)NS(=O)(=O)c4ccc(OCC5(F)CCN(C6COC6)CC5)c([N+](=O)[O-])c4)c(Oc4cnc(N)c(Cl)c4)c3)CC2)=C(c2ccc(Cl)cc2)C1 [Example 432, 2-[(6-amino-5-chloropyridin-3-yl)oxy]-4-(4-{[2-(4-chlorophenyl)-4,4-dimethylcyclohex-1-en-1-yl]methyl}piperazin-1-yl)-N-[(4-{[4-fluoro-1-(oxetan-3-yl)piperidin-4-yl]methoxy}-3-nitrophenyl)sulfonyl]benzamide]
Ki: < 10 pM

CC1(C)CCC(CN2CCN(c3ccc(C(=O)NS(=O)(=O)c4ccc(OCC5(F)CCOCC5)c([N+](=O)[O-])c4)c(Oc4cc(F)cc5[nH]ncc45)c3)CC2)=C(c2ccc(Cl)cc2)C1 [Example 433, 4-(4-{[2-(4-chlorophenyl)-4,4-dimethylcyclohex-1-en-1-yl]methyl}piperazin-1-yl)-2-[(6-fluoro-1H-indazol-4-yl)oxy]-N-({4-[(4-fluorotetrahydro-2H-pyran-4-yl)methoxy]-3-nitrophenyl}sulfonyl)benzamide]
Ki: < 10 pM

CC1(C)CCC(CN2CCN(c3ccc(C(=O)NS(=O)(=O)c4ccc(NCC5CCC(C)(O)CC5)c([N+](=O)[O-])c4)c(Oc4cnc(N)c(Cl)c4)c3)CC2)=C(c2ccc(Cl)cc2)C1 (stereo not drawn) [Example 434, 2-[(6-amino-5-chloropyridin-3-yl)oxy]-4-(4-{[2-(4-chlorophenyl)-4,4-dimethylcyclohex-1-en-1-yl]methyl}piperazin-1-yl)-N-[(4-{[(trans-4-hydroxy-4-methylcyclohexyl)methyl]amino}-3-nitrophenyl)sulfonyl]benzamide]
Ki: < 10 pM

CO[C@H]1CC[C@H](CNc2ccc(S(=O)(=O)NC(=O)c3ccc(N4CCN(CC5=C(c6ccc(Cl)cc6)CC(C)(C)CC5)CC4)cc3Oc3cccc4[nH]nc(N)c34)cc2[N+](=O)[O-])CC1 [Example 435, 2-[(3-amino-1H-indazol-4-yl)oxy]-4-(4-{[2-(4-chlorophenyl)-4,4-dimethylcyclohex-1-en-1-yl]methyl}piperazin-1-yl)-N-[(4-{[(trans-4-methoxycyclohexyl)methyl]amino}-3-nitrophenyl)sulfonyl]benzamide]
Ki: 10 pM

CC1(C)CCC(CN2CCN(c3ccc(C(=O)NS(=O)(=O)c4ccc(OC[C@H]5CC[C@@](C)(O)CC5)c([N+](=O)[O-])c4)c(Oc4cnc(N)c(Cl)c4)c3)CC2)=C(c2ccc(Cl)cc2)C1 [Example 436, 2-[(6-amino-5-chloropyridin-3-yl)oxy]-4-(4-{[2-(4-chlorophenyl)-4,4-dimethylcyclohex-1-en-1-yl]methyl}piperazin-1-yl)-N-({4-[(cis-4-hydroxy-4-methylcyclohexyl)methoxy]-3-nitrophenyl}sulfonyl)benzamide]
Ki: < 10 pM

CC1(C)CCC(CN2CCN(c3ccc(C(=O)NS(=O)(=O)c4ccc(NCC5CCC(C)(O)CC5)c([N+](=O)[O-])c4)c(Oc4cnc(N)c(Cl)c4)c3)CC2)=C(c2ccc(Cl)cc2)C1 (stereo not drawn) [Example 437, 2-[(6-amino-5-chloropyridin-3-yl)oxy]-4-(4-{[2-(4-chlorophenyl)-4,4-dimethylcyclohex-1-en-1-yl]methyl}piperazin-1-yl)-N-[(4-{[(cis-4-hydroxy-4-methylcyclohexyl)methyl]amino}-3-nitrophenyl)sulfonyl]benzamide]
Ki: < 10 pM

Cn1c(=O)[nH]c2cccc(Oc3cc(N4CCN(CC5=C(c6ccc(Cl)cc6)CC(C)(C)CC5)CC4)ccc3C(=O)NS(=O)(=O)c3ccc(OCC4CCOCC4)c(Cl)c3)c21 [Example 438, 4-(4-{[2-(4-chlorophenyl)-4,4-dimethylcyclohex-1-en-1-yl]methyl}piperazin-1-yl)-N-{[3-chloro-4-(tetrahydro-2H-pyran-4-ylmethoxy)phenyl]sulfonyl}-2-[(3-methyl-2-oxo-2,3-dihydro-1H-benzimidazol-4-yl)oxy]benzamide]
Ki: 31 pM

Cn1c(=O)[nH]c2cccc(Oc3cc(N4CCN(CC5=C(c6ccc(Cl)cc6)CC(C)(C)CC5)CC4)ccc3C(=O)NS(=O)(=O)c3ccc(NCC4CN(C5CC5)CCO4)c([N+](=O)[O-])c3)c21 (stereo not shown) [Example 439, 4-(4-{[2-(4-chlorophenyl)-4,4-dimethylcyclohex-1-en-1-yl]methyl}piperazin-1-yl)-N-[(4-{[(4-cyclopropylmorpholin-2-yl)methyl]amino}-3-nitrophenyl)sulfonyl]-2-[(3-methyl-2-oxo-2,3-dihydro-1H-benzimidazol-4-yl)oxy]benzamide]
Ki: < 10 pM

CC1(C)CCC(CN2CCN(c3ccc(C(=O)NS(=O)(=O)c4ccc(OCC5CCC6(CC5)COC6)c([N+](=O)[O-])c4)c(Oc4cnc(N)c(Cl)c4)c3)CC2)=C(c2ccc(Cl)cc2)C1 [Example 440, 2-[(6-amino-5-chloropyridin-3-yl)oxy]-4-(4-{[2-(4-chlorophenyl)-4,4-dimethylcyclohex-1-en-1-yl]methyl}piperazin-1-yl)-N-{[3-nitro-4-(2-oxaspiro[3.5]non-7-ylmethoxy)phenyl]sulfonyl}benzamide]
Ki: 22 pM
